Legend:
[1] = Liquid
[2] = xn = mol fraction of the nth substance listed; settings: for mass density: Other PVT measurement; for Critical density: closed cell phase equilibration

O=C=O [carbon dioxide]
[1]
Settings | Critical pressure [kPa] | Critical temperature [K]
Direct measurement | 7360 | –
Visual observation in a stirred cell | – | 304.2

CCc1ccccc1 [ethylbenzene] + O=C=O
mass density [kg/m3], [2], Liquid
Settings | 303.2 K | 308.2 K | 313.2 K | 318.2 K | 323.2 K | 328.2 K | 333.2 K
x1 = 0.0211 | 709 | 665 | 590 | – | – | – | –
x1 = 0.0384 | 741 | 715 | 673 | 633 | 583 | – | –
x1 = 0.0512 | 762 | 735 | 702 | 671 | 630 | 603 | –
x1 = 0.0637 | 782 | 761 | 731 | 703 | 675 | 642 | 607
x1 = 0.0751 | 790 | 769 | 748 | 722 | 697 | 672 | 646
x1 = 0.0998 | 818 | 799 | 779 | 760 | 742 | 723 | 706

[2], Liquid
Settings | Critical density [kg/m3]
x1 = 0.0225 | 520
x1 = 0.0363 | 545
x1 = 0.0488 | 580

C=Cc1ccccc1 [styrene] + O=C=O
mass density [kg/m3], [2]
Settings | x1 = 0.0225 | x1 = 0.0363 | x1 = 0.0488 | x1 = 0.0742 | x1 = 0.101
303.2 K, Liquid | 721 | 755 | 774 | 805 | 831
308.2 K, Liquid | 675 | 721 | 747 | 781 | 813
313.2 K, Liquid | 615 | 683 | 711 | 758 | 794
318.2 K, Liquid | 529 | 635 | 682 | 734 | 774
321.2 K, Gas | 500 | – | – | – | –
323.2 K, Liquid | – | 582 | 645 | 711 | 755
328.2 K, Liquid | – | – | 608 | 685 | 733
330.2 K, Gas | – | 527 | – | – | –
333.2 K, Gas | – | – | 570 | – | –
333.2 K, Liquid | – | – | – | 663 | 713

[2], Liquid
Settings | Critical density [kg/m3]
x1 = 0.0211 | 504
x1 = 0.0384 | 546
x1 = 0.0512 | 560
x1 = 0.0637 | 590

Reference: the NIST ThermoML archive (doi:10.1021/je049546h)
